Test results published in article PMC12735778, “Purification and Biochemical Characterization of Polyphenol Oxidase from Falcaria vulgaris Bernh” (Molecules, 2025).
Marks after values point to notes of the source that are not given here.

Key:
[1] = tested on: PPO from Laccaria laccata (LacPPO); design: method as in doi:10.1111/jfbc.12605; details: substance as substrate; ref [43]; cited from earlier work
[2] = tested on: PPO from persimmon fruits; design: method as in doi:10.1016/j.foodchem.2003.07.022; details: substance as substrate, ref [47], cited from earlier work; for Vmax: asterisked values
PPO from butter lettuce = tested on: PPO from butter lettuce; design: method as in doi:10.1016/j.foodchem.2007.07.068; details: substance as substrate; ref [38]; cited from earlier work
PPO from Chinese parsley = tested on: PPO from Chinese parsley; design: method as in PMID 30263491; details: substance as substrate; ref [50]; cited from earlier work
[3] = tested on: polyphenol oxidase (PPO) from sickleweed; assay: Substrate kinetics of sickleweed PPO (Lineweaver-Burk); type: biochemical, Falcaria vulgaris Bernh.; details: substance as substrate; optimum pH and temperature
Experimental: (§1) PPO activity was determined by measuring the increase in absorbance at 496 nm for 4-methylcatechol and 500 nm for catechol and DHPPA with a UV–Vis spectrophotometer. PPO activity was detected by the increment in absorbance in 1 min by adding 100 μL of the substrate (100 mM), 100 μL of 3-Methyl-2-benzothiazolinone hydrazone (MBTH, 10 mM), 20 μL of Dimethylformamide (DMF), 680 μL of 50 mM pH 5.0 acetate buffer, and finally 100 μL of the enzyme. The blank contains all solutions, excluding the enzyme. The enzyme unit is defined as the amount of the enzyme producing an absorbance increase of 0.001 per minute in 1 mL of the reaction mixture. The specific activity of PPO was defined as units per mg of protein [64].
To determine substrate specificity, catechol (0.2–20 mM), 4-methylcatechol (0.2–20 mM), and DHPPA (0.2–20 mM) concentrations were studied. Enzyme activity was carried out at optimum temperature and pH. The kinetic data were analyzed in terms of 1/activity (1/V) and 1/substrate concentration ([S]). The Michaelis-Menten constant (Km) and the maximum velocity (Vmax) were computed by plotting the Lineweaver-Burk graph. The catalytic efficiency ratio (Vmax/Km) was used as a criterion to evaluate substrate specificity.

Medlar PPO = tested on: Medlar PPO; design: method as in doi:10.1016/S0308-8146(01)00359-4; details: substance as substrate, ref [51], cited from earlier work; for Vmax: asterisked values
PPO from Sarali plum [4] = tested on: PPO from Sarali plum; design: method as in doi:10.1007/s11694-024-02663-y; details: substance as substrate; ref [39]; cited from earlier work
PPO from purslane = tested on: PPO from purslane; design: method as in doi:10.1590/1678-457x.03216; details: substrate catechol; ref [21]; cited from earlier work
PPO from Sarali plum [5] = tested on: PPO from Sarali plum; design: method as in doi:10.1007/s11694-024-02663-y; details: substrate 4-methylcatechol; ref [39]; cited from earlier work
PPO from tea leaf = tested on: PPO from tea leaf; design: method as in doi:10.1007/s11694-019-00264-8; details: substrate catechol; ref [40]; cited from earlier work
[6] = tested on: PPO from broccoli florets; design: method as in doi:10.1016/j.foodchem.2007.05.012; details: substrate 4-methylcatechol; ref [61]; cited from earlier work
[7] = tested on: polyphenol oxidase (PPO) from sickleweed; assay: Inhibition of PPO purified from sickleweed, 4-methylcatechol substrate; type: biochemical, Falcaria vulgaris Bernh.; details: substrate 4-methylcatechol; for Inhibition type / Ki: Lineweaver-Burk plots; for IC50: optimum conditions
Experimental: as §1
The common inhibitors of PPO were preferred to study the inhibitory effects on PPO activity. For the 4-methylcatechol substrate, sodium metabisulphite (0.005–0.1 mM), citric acid (5–60 mM), and ascorbic acid (0.005–0.04 mM) inhibitors were utilized to determine enzyme activities under optimum conditions. The half maximal inhibitory concentration (IC50), which halves the enzyme activity, was calculated using the graph of percentage residual activity (%) versus inhibitor concentration (enzyme activity in the absence of inhibitor was accepted as one hundred percent). Then, enzyme activities were studied at five substrate concentrations and three inhibitor concentrations under optimum conditions. The Lineweaver-Burk graphs were drawn by calculating 1/V and 1/[S] values with the obtained data. From these graphs, inhibition constant (Ki) values were calculated for each inhibitor, and the inhibition type was determined.

Structure (SMILES) | Km [1] [mM] | Vmax [2] | Km [2] [mM] | Km (PPO from butter lettuce) [mM] | Vmax (PPO from butter lettuce) [EU·mL^−1·min^−1] | Km (PPO from Chinese parsley) [mM] | Vmax (PPO from Chinese parsley) [EU·mL^−1·min^−1] | Km [3] [mM] | Vmax [3] | Vmax (Medlar PPO) | Km (Medlar PPO) [mM] | Km (PPO from Sarali plum [4]) [mM] | Vmax (PPO from Sarali plum [4]) [EU·mL^−1·min^−1] | Inhibition type (PPO from purslane) | Ki (PPO from purslane) [µM] | IC50 (PPO from tea leaf) [µM] | Inhibition type (PPO from tea leaf) | Inhibition type [7] | Ki [7] [µM] | IC50 [7] [µM] | further results
Cc1ccc(O)c(O)c1 [4-Methylcatechol, 4-methylcatechol] | 0.4 | 49.5 * μM/min | 14.6 | 1 ± 0.09 | 5405 ± 4 | 37.4 | 1428.57 | 2 | 5000 EU·mL^−1·min^−1 | 130 * μM/min | 7.5 | 4.75 ± 0.66 | 2333.33 ± 288.68 |  |  |  |  |  |  |  | 
O=C1O[C@H]([C@@H](O)CO)C(O)=C1O [Ascorbic acid, ascorbic acid] |  |  |  |  |  |  |  |  |  |  |  |  |  | Noncompetitive | 360 | 69.3 | Competitive | Competitive | 10.1 | 26 | IC50 (PPO from Sarali plum [5]): 38 ± 1 µM; Inhibition type (PPO from Sarali plum [5]): Competitive; Ki (PPO from Sarali plum [5]): 9.5 µM; Ki (PPO from tea leaf): 32.7 µM; Inhibition type [6]: Noncompetitive; Ki [6]: 88 µM
Oc1ccccc1O [Catechol, catechol] | 0.25 | 55.2 * μM/min | 12.4 | 3.2 ± 0.01 | 4081 ± 8 | 31 | 2000 | 5 | 10,000 EU·mL^−1·min^−1 | 88.0 * μM/min | 5.7 | 1.16 ± 0.12 | 914.14 ± 83.45 |  |  |  |  |  |  |  | 
O=C(O)CC(O)(CC(=O)O)C(=O)O [Citric acid, citric acid] |  |  |  |  |  |  |  |  |  |  |  |  |  | Uncompetitive | 4470 |  |  | Competitive | 8370 | 32000 | Inhibition type [6]: Noncompetitive; Ki [6]: 74 µM; Ki ([7]; listed as citric acid): 8730 µM
O=C(O)CCc1ccc(O)c(O)c1 [DHPPA, 3,4-Dihydroxyphenylpropionic acid] |  | 17.2 * μM/min | 12.8 |  |  |  |  | 11.4 | 14,285.71 EU·mL^−1·min^−1 | 7.2 * μM/min | 1.9 |  |  |  |  |  |  |  |  |  | 
O=S(O)S(=O)(=O)O [Sodium metabisulfite, sodium metabisulfite] |  |  |  |  |  |  |  |  |  |  |  |  |  |  |  | 21.7 | Noncompetitive | Noncompetitive | 23.7 | 27 | Ki (PPO from tea leaf): 19.3 µM
